In data set [1] the target is T1, Glutaminase kidney isoform, mitochondrial (Homo sapiens) (UniProt O94925).
T1 sequence (whole entry): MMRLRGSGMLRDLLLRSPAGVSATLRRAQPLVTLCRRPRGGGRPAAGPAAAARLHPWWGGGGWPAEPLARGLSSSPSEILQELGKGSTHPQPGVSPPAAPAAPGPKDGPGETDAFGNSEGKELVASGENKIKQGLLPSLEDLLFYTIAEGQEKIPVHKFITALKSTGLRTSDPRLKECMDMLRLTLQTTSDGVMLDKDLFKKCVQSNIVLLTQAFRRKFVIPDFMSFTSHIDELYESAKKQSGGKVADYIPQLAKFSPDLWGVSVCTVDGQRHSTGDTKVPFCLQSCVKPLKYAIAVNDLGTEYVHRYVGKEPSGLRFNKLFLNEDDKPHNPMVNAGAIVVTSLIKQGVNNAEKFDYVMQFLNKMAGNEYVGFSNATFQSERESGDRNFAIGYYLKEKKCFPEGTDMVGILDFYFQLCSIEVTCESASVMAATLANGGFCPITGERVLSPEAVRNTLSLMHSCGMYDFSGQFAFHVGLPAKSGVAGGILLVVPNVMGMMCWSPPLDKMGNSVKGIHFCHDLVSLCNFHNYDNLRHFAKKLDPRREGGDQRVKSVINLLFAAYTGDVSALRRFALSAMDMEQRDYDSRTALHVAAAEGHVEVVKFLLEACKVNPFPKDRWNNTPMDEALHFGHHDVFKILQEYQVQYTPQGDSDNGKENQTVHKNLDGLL
Description: Binding affinity to human GLS1 expressed in Escherichia coli strain BL21 (DE3) assessed as change in melting temperature by SYPRO orange dye based protein thermal shift assay

Data set [2] relates to MDA-MB-436. The data set is described as follows: Antiproliferative activity against human MDA-MB-436 cells assessed as reduction in cell viability incubated for 72 hrs by MTT assay. As to conditions: MDA-MB-436, 72 h. The data set is classed as functional, cell-based.
A short description of data set [3]: Distribution coefficient, logD of the compound at pH 7.4 by LC-MS based shake-flask method. The following applies: octanol/water, read-out: logD. The data set is classed as physicochemical.
Data set [4] relates to HCT-116. The data set is described as follows: Antiproliferative activity against human HCT116 cells assessed as reduction in cell viability incubated for 72 hrs by MTT assay. The data set is classed as functional, cell-based. As to conditions: HCT-116, 72 h.
A short description of data set [5]: Intrinsic aqueous solubility of compound at pH 7.4 by LC-MS based shake-flask method. The data set is classed as physicochemical. As to conditions: read-out: Intrinsic_solubility.
The target of data set [6] is T2, Glutaminase kidney isoform, mitochondrial (Homo sapiens, UniProt O94925).
T2 sequence (O94925 whole entry): T1 sequence (whole entry)
The data set can be described thus: Inhibition of recombinant human GLS1 expressed in Escherichia coli strain BL21 (DE3) preincubated for 10 mins before glutamine addition and measured after 60 mins by bovine liver glutamate dehydrogenase based coupled enzyme assay.

Data set [7] concerns HCT-116. The data set can be described thus: Inhibition of colony formation in human HCT-116 cells incubated for 14 days by crystal violet staining based assay. The data set is classed as functional, cell-based. As to conditions: dose 0.1-2 µM, time 14.0 day.

SMILES strings stand for the structures. Converted amounts (≈) assume the structure as drawn.

In the case of `O=C1Cc2ccc(cc2)OCCCC/C=C/CCCCOc2ccc(cc2)CC(=O)Nc2nnc(s2)CCCCc2nnc(s2)N1`, in data set [1], the ΔTm came to 12.9 °C. Besides, the half-inhibitory concentration (IC50) in data set [2] was found to be 2510 nM; in data set [4] it was 1480 nM; in data set [6], 193 nM. Further, the logD in data set [3] is 3.91. In addition, in data set [5], the solubility thermodynamic amounted to 0.25 µg/mL (≈ 0.378 µM).
With `O=C1CCc2cccc(c2)OCCCC/C=C/CCCC(=O)Nc2nnc(s2)CCCCc2ccc(nn2)N1`, the thermal shift (ΔTm) in data set [1] amounted to 16.7 °C. The IC50 stood at 510 nM in data set [2], 140 nM in data set [4] and 25 nM in data set [6]. In addition, the log distribution coefficient (logD) in data set [3] was 4.29. Further, in data set [7], the inhibition result was “Dose-Dependent Effect”. In addition, the solubility thermodynamic in data set [5] was 1.84 µg/mL (≈ 3.35 µM).
For the compound `O=C1Cc2cccc(c2)OCCC/C=C/CCCOc2cccc(c2)CC(=O)NC2=NN=C(CCCCC3=NN=C(N1)S3)S2`, the ΔTm in data set [1] was 16.7 °C. Further, the values for the IC50 in data set [2], in data set [4] and in data set [6] were 820 nM, 510 nM and 82 nM, respectively. Besides, the logD in data set [3] was 3.49. In data set [5], the solubility thermodynamic is 0.25 µg/mL (≈ 0.395 µM).
Take `O=C1CCCC/C=C/CCCCOc2cccc(c2)CCC(=O)Nc2nnc(s2)CCCCc2ccc(nn2)N1`: the ΔTm in data set [1] was 16.3 °C. In addition, the IC50 in data set [2] was found to be 1820 nM; in data set [4], 680 nM; in data set [6], 123 nM. Moreover, in data set [3], the log distribution coefficient (logD) came to 3.89. For the same compound, the solubility thermodynamic in data set [5] came to 1.97 µg/mL (≈ 3.5 µM).
As to `O=C1Cc2ccc(cc2)OCC/C=C/CCOc2ccc(cc2)CC(=O)Nc2nnc(s2)CCCCc2nnc(s2)N1`, in data set [1], the ΔTm was determined as 13.9 °C. Also, the IC50 in data set [2] came out at 1900 nM; in data set [4], 960 nM; in data set [6] it was 80 nM. Also, in data set [3], the logD is 3.52. The inhibition result in data set [7] was “Dose-Dependent Effect”. In data set [5], the solubility thermodynamic is 0.33 µg/mL (≈ 0.546 µM).
For `O=C1CCc2cccc(c2)OCC/C=C/CCCC(=O)Nc2nnc(s2)CCCCc2ccc(nn2)N1`, the ΔTm in data set [1] is 11.7 °C. Further, the IC50 was 6300 nM in data set [2], 1450 nM in data set [4] and 372 nM in data set [6]. Moreover, the pH-dependent lipophilicity (logD) in data set [3] amounted to 3.08. Besides, the solubility thermodynamic in data set [5] was 2.05 µg/mL (≈ 3.94 µM).
As to `O=C(Cc1ccccc1)Nc1nnc(CCSCCc2nnc(NC(=O)Cc3ccccc3)s2)s1`, the IC50 worked out at 5080 nM in data set [2] and 3910 nM in data set [4]. The logD in data set [3] was found to be 2.86.
In the case of `O=C1CC/C=C/CCC(=O)Nc2cccc(c2)CC(=O)Nc2nnc(s2)CCCCc2ccc(nn2)NC(=O)Cc2cccc(c2)N1`, the shift in melting temperature (ΔTm) in data set [1] stood at 15.9 °C. Besides, the values for the concentration for half-maximal inhibition (IC50) in data set [2], in data set [4] and in data set [6] were 840 nM, 520 nM and 75 nM, respectively. In data set [3], the logD came out at 2.53. Also, the inhibition entry in data set [7] was “Dose-Dependent Effect”. For the same compound, in data set [5], the solubility thermodynamic is 2.34 µg/mL (≈ 3.58 µM).
In the case of `O=C1Cc2ccc(cc2)OC/C=C/COc2ccc(cc2)CC(=O)Nc2nnc(s2)CCCCc2nnc(s2)N1`, in data set [1], the ΔTm is 16.1 °C. Besides, the half-maximal inhibitory concentration (IC50) in data set [2] is 790 nM; in data set [4] it was 420 nM; in data set [6] it was 76 nM. Besides, in data set [3], the logD was 2.98. The solubility thermodynamic in data set [5] was 0.36 µg/mL (≈ 0.624 µM).
With `O=C1Cc2ccc(cc2)OCCC/C=C/CCCOc2ccc(cc2)CC(=O)Nc2nnc(s2)CCCCc2nnc(s2)N1`, the shift in melting temperature (ΔTm) in data set [1] was 0.19 °C. Besides, the IC50 came out at 38300 nM in data set [2], 16200 nM in data set [4] and 4700 nM in data set [6]. Moreover, the log distribution coefficient (logD) in data set [3] is 3.62. In data set [5], the solubility thermodynamic was found to be 0.29 µg/mL (≈ 0.458 µM).
For the compound `O=C1Cc2cccc(c2)OCC/C=C/CCOc2cccc(c2)CC(=O)NC2=NN=C(CCCCC3=NN=C(N1)S3)S2`, the ΔTm in data set [1] was determined as 15.9 °C. Besides, the IC50 in data set [2] is 470 nM; in data set [4], 350 nM; in data set [6], 47 nM. The logD in data set [3] worked out at 3.16. Also, the solubility thermodynamic in data set [5] was determined as 0.31 µg/mL (≈ 0.513 µM).
Take `O=C1Cc2cccc(c2)OCCC/C=C/CCCOc2cccc(c2)CC(=O)Nc2nnc(s2)CCCCc2ccc(nn2)N1`: in data set [1], the shift in melting temperature (ΔTm) amounted to 18.3 °C. Also, the IC50 in data set [2] stood at 570 nM; in data set [4], 190 nM; in data set [6] it was 28 nM. Besides, the log distribution coefficient (logD) in data set [3] turned out to be 3.48. Besides, the inhibition result in data set [7] is “Dose-Dependent Effect”. Moreover, in data set [5], the solubility thermodynamic stood at 1.62 µg/mL (≈ 2.58 µM).
Consider `O=C1Cc2ccccc2OCCCC/C=C/CCCCOc2cccc(c2)CC(=O)Nc2nnc(s2)CCCCc2ccc(nn2)N1`, for which the ΔTm in data set [1] turned out to be 17.7 °C. The 50% inhibitory concentration (IC50) worked out at 710 nM in data set [2], 380 nM in data set [4] and 37 nM in data set [6]. Besides, the logD in data set [3] was determined as 3.72. Moreover, the solubility thermodynamic in data set [5] came out at 1.09 µg/mL (≈ 1.66 µM).
With `O=C1Cc2cccc(c2)OC/C=C/COc2cccc(c2)CC(=O)Nc2nnc(s2)CCCCc2ccc(nn2)N1`, in data set [1], the shift in melting temperature (ΔTm) came to 17.2 °C. The IC50 in data set [2] was found to be 640 nM; in data set [4], 260 nM; in data set [6], 32 nM. In addition, in data set [3], the logD was 2.79. Moreover, the inhibition entry in data set [7] was “Dose-Dependent Effect”. Further, the solubility thermodynamic in data set [5] was 2.16 µg/mL (≈ 3.78 µM).
For the compound `C=CCCOc1cccc(CC(=O)Nc2ccc(CCCCc3nnc(NC(=O)Cc4cccc(OCCC=C)c4)s3)nn2)c1`, the IC50 in data set [6] came out at 68 nM.
As for `O=C1Cc2cccc(c2)OC/C=C/COc2cccc(c2)CC(=O)NC2=NN=C(CCCCC3=NN=C(N1)S3)S2`, in data set [1], the shift in melting temperature (ΔTm) is 16.5 °C. Further, the values for the IC50 in data set [2], in data set [4] and in data set [6] were 510 nM, 280 nM and 41 nM, respectively. For the same compound, the logD in data set [3] was 2.9. In data set [7], the inhibition result was “Dose-Dependent Effect”. Also, in data set [5], the solubility thermodynamic amounted to 0.34 µg/mL (≈ 0.59 µM).
As for `O=C1Cc2cccc(c2)OCCCC/C=C/CCCCOc2cccc(c2)CC(=O)NC2=NN=C(CCCCC3=NN=C(N1)S3)S2`, the ΔTm in data set [1] stood at 16.6 °C. For the same compound, the half-inhibitory concentration (IC50) in data set [2] came out at 6490 nM; in data set [4] it was 7080 nM; in data set [6], 225 nM. Moreover, the logD in data set [3] came out at 3.85. Besides, the solubility thermodynamic in data set [5] is 0.22 µg/mL (≈ 0.333 µM).
